Reference: patent publication US20250295732A1, “COMPOSITIONS AND METHODS FOR ACTIVATING INNATE IMMUNITY” (Zoetis Services LLC, priority 2021, published 2025)

Columns and labels:
[1] = test system: bovine monocyte-derived macrophages; test: LPS-induced cytokine response of CATH2-trained monocyte-derived macrophages (U-Plex MSD); type: cell-based; conditions: CATH2 24 hr, removal, 3-day rest, LPS 1 μg/mL 24 hours; vs vehicle
From the text: (§1) Peripheral blood mononuclear cells (PBMC) were isolated from bovine blood using ficoll gradients. Bovine monocytes were isolated from PBMC using magnetic assisted cell sorting to positively select for CD14+ cells using anti-human CD14 microbeads (Miltenyi Biotec). Purified bovine blood CD14+ monocytes were differentiated into macrophages using an M2-skewing differentiation factor (recombinant bovine M-CSF) over 7 days then exposed to CATH2 or a vehicle control in the presence of bovine casein to mimic aspects of the mammary gland for 24 hr. […] Following the rest period, a subset of vehicle- and CATH2-trained monocyte-derived macrophages were assessed for epigenetic and transcriptomic changes. The remaining cells were challenged with LPS or E. coli bioparticle labeled with pH-sensitive pHrodo green dye and key parameters for macrophage activation/immune response were assessed including glycolytic activity, surface marker expression, gene expression, cytokine production, phagocytosis, reactive nitrogen species production, and miRNA profiling.
Cytokine levels in cell culture supernatant (IL-8/CXCL8, IL-6, TNFα, IL-1β, IL-10, IL-12p40) were quantified using customized U-Plex assays (MesoScale Diagnostics, LLC). […] Raw data were analyzed using MSD DISCOVERY BENCHWORK.

[2] = test system: bovine monocyte-derived macrophages; test: ChIP-Seq for H3K27ac; type: cell-based; conditions: after CATH2 exposure and 3-day rest, pre-LPS; vs vehicle
From the text: Peripheral blood mononuclear cells (PBMC) were isolated from bovine blood using ficoll gradients. Bovine monocytes were isolated from PBMC using magnetic assisted cell sorting to positively select for CD14+ cells using anti-human CD14 microbeads (Miltenyi Biotec). Purified bovine blood CD14+ monocytes were differentiated into macrophages using an M2-skewing differentiation factor (recombinant bovine M-CSF) over 7 days then exposed to CATH2 or a vehicle control in the presence of bovine casein to mimic aspects of the mammary gland for 24 hr. Following treatment, vehicle and drug were removed and cells were washed to eliminate residual drug and monocyte-derived macrophages were rested for 3 days in order to assess reprogramming. Following the rest period, a subset of vehicle- and CATH2-trained monocyte-derived macrophages were assessed for epigenetic and transcriptomic changes. The remaining cells were challenged with LPS or E. coli bioparticle labeled with pH-sensitive pHrodo green dye and key parameters for macrophage activation/immune response were assessed including glycolytic activity, surface marker expression, gene expression, cytokine production, phagocytosis, reactive nitrogen species production, and miRNA profiling. […]

[3] = test system: bovine monocyte-derived macrophages; test: Flow cytometric surface marker expression after LPS; type: cell-based; conditions: 24 hr following LPS after CATH2 removal and 3-day rest; vs vehicle
From the text: as §1
Expression of surface markers on bovine monocyte-derived macrophages and cells isolated from bovine milk were assessed using flow cytometry. […] Following incubation with live/dead stain and antibodies, labeled cells were washed, and then analyzed on a ZE5 CellAnalyzer (BioRad) for monocyte-derived macrophages and a FACS Canto II (BD) for milk cells. […]

[4] = test system: milk macrophages (CD14+CD172a+ milk cells); test: In vivo intramammary treatment and E. coli mastitis challenge model; set-up: species or system lactating dairy cows
Description: Healthy lactating dairy cows were treated according to table 1 on day −2 of study, at the AM milking, in the front quarters designated by the allotment, one quarter was treated with CATH2 and the neighboring quarter within the same cow was given vehicle control by intramammary infusion. Following administration of CATH2 and vehicle doses, quarters which received CATH2 or vehicle received an intramammary infusion of live Escherichia coli. The E. coli strain used causes clinical mastitis. Milk samples from CATH2-treated and vehicle control quarters were collected following E. coli challenge for cell isolation to assess macrophage surface marker expression.
Expression of surface markers on bovine monocyte-derived macrophages and cells isolated from bovine milk were assessed using flow cytometry. In brief, for monocyte-derived macrophages, cells were lifted with Accutase, washed, and then incubated with fluorescently tagged antibodies against bovine surface markers of interest (CD163, CD14, CD80, MHC II) and a live/dead stain. In brief, for cells in bovine milk, milk was diluted in MACS Running Buffer, spun, fat layer and supernatant were discarded, and milk cell pellets were preserved in Streck. Preserved milk cells were washed again and then incubated with fluorescently tagged antibodies against bovine surface markers of interest (CD163, CD14, CD80, MHC II, CD172a) and a live/dead stain. Following incubation with live/dead stain and antibodies, labeled cells were washed, and then analyzed on a ZE5 CellAnalyzer (BioRad) for monocyte-derived macrophages and a FACS Canto II (BD) for milk cells. Flow cytometry data were analyzed using FlowJo analysis software (Becton Dickson) to assess relative levels of expression via mean fluorescent intensity for each marker of interest within the live CD14+ cell population (for monocyte-derived macrophages) or within the live CD14+CD172a+ cell population (for milk cells).

[5] = test system: bovine monocyte-derived macrophages; test: Reactive nitrogen species (nitrite, Griess Reagent System); type: cell-based; conditions: E. coli bioparticles 10 μg/mL 24 hours after CATH2 24 hr and 3-day rest; vs vehicle
From the text: as §1, with “profiling. Nitrite, a primary breakdown product of nitric oxide, in cell culture supernatant were quantified using Griess Reagent System (Promega) according to manufacturer's instructions.” for “profiling.”

[6] = intramammary CATH2 prior to E. coli challenge

For “RFGRFLRKIRRFRPKVTITIQGSARFG [CATH2, cathelicidin 2 peptide]”, the “LPS-induced cytokine production (IL-12p40, IL-6, TNFα, IL-8, IL-1β, IL-10)” value [1] was “enhanced production of both pro- and anti-inflammatory cytokines/chemokines”, the “ChIP-Seq peaks with H3K27ac mark” value [2] was “increased number of peaks with H3K27ac mark” and the “Surface marker expression (CD14, CD80, MHC II, CD163)” value [3] was “enhanced expression of multiple surface markers”. The “Bacterial counts in milk” value [4, 6] was “reduced bacterial counts in milk”, the “Milk somatic cell counts” value [4, 6] was “lower milk somatic cell counts” and the “Milk macrophage surface marker expression (CD14, CD80, MHC II, CD163)” value ([4]; intramammary CATH2 prior to challenge, 12 hr following live E. coli intramammary challenge, vs vehicle quarter) was “enhanced expression of the same surface markers”. For the same sequence, the “RNS (nitrite) response to E. coli bioparticle challenge” value [5] was “enhanced production of nitrogen oxide species/reactive nitrogen species (RNS) responses”.
